Measured values taken from US7335671B2, “Arylcycloalkyl-substituted alkanoic acid derivatives, processes for their preparation and their use as pharmaceuticals” (Sanofi-Aventis Deutschland GmbH, priority 2003, dated 2008).

Molecular target: T1, PPARalpha (Homo sapiens, UniProt Q07869)
T1 construct: human PPARalpha receptor (amino acids S167-Y468); expressed in transfected cells; host or cells: HEK (human embryo kidney) cells, stably transfected; pcDNA3 vector, CMV promoter
T1 sequence (Q07869 167-468): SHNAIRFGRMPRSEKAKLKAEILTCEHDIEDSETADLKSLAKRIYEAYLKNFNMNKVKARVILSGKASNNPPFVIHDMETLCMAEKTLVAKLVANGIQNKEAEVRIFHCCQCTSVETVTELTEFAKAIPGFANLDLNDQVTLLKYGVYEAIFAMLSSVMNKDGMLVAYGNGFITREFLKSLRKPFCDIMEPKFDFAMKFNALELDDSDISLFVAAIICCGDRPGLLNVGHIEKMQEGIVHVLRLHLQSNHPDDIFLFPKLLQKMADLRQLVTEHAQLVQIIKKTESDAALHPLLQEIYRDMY
Assay: Cellular PPARalpha assay (stably transfected HEK luciferase reporter cell line)
Assay type: cell-based
Conditions: GR-GAL4-humanPPARalpha-LBD
Protocol: Determination of EC50 Values of PPAR agonists in the Cellular PPARalpha Assay
The potency of substances which bind to human PPARA and activate in an agonistic manner is analyzed using a stably transfected HEK cell line (HEK =human embryo kidney) which is referred to here as PPARalpha reporter cell line. It contains two genetic elements, a luciferase reporter element (pδM-GAL4-Luc-Zeo) and a PPARalpha fusion protein (GR-GAL4-humanPPARα-LBD) which mediates expression of the luciferase reporter element depending on a PPARalpha ligand. The stably and constitutively expressed fusion protein GR-GAL4-humanPPARalpha-LBD binds in the cell nucleus of the PPARalpha reporter cell line via the GAL4 protein portion to the GAL4 DNA binding motifs 5′-upstream of the luciferase reporter element which is integrated in the genome of the cell line. There is only little expression of the luciferase reporter gene without addition of a PPARalpha ligand if fatty acid-depleted fetal calf serum (cs-FCS) is used in the assay. PPARα ligands bind and activate the PPARα fusion protein and thereby bring about expression of the luciferase reporter gene. The luciferase which is formed can be detected by means of chemiluminescence via an appropriate substrate.
The PPARalpha reporter cell line was prepared in 2 stages. Firstly, the luciferase reporter element was constructed and stably transfected into HEK cells. For this purpose, five binding sites of the yeast transcription factor GAL4 (each 5′-CGGAGTACTGTCCTCCGAG-3′) (SEQ ID No. 1) were cloned in 5′-upstream of a 68 bp-long minimal MMTV promoter (Genbank Accession # V01 175). The minimal MMTV promoter section contains a CCAAT box and a TATA element in order to enable efficient transcription by RNA polymerase 11. The cloning and sequencing of the GAL4-MMTV construct took place in analogy to the description of Sambrook J. et. al. (Molecular cloning, Cold Spring Harbor Laboratory Press, 1989). Then the complete Photinus pyralis gene (Genbank Accession # M15077) was cloned in 3′-downstream of the GAL4-MMTV element. After sequencing, the luceriferase reporter element consisting of five GAL4 binding sites, MMTV promoter and luciferase gene was recloned into a plasmid which confers zeocin resistance in order to obtain the plasmid pδM-GAL4-Luc-Zeo. This vector was transfected into HEK cells in accordance with the statements in Ausubel, F. M. et al. (Current protocols in molecular biology, Vol. 1-3, John Wiley & Sons, Inc., 1995).
In a second step, the PPARalpha fusion protein (GR-GAL4-humanPPARalpha-LBD was introduced into the stable cell clone described. For this purpose, initially the cDNA coding for the N-terminal 76 amino acids of the glucocorticoid receptor (Genbank Accession # P04150) was linked to the cDNA section coding for amino acids 1-147 of the yeast transcription factor GAL4 (Genbank Accession # P04386). The cDNA of the ligand-binding domain of the human PPARalpha receptor (amino acids S167-Y468; Genbank Accession # S74349) was cloned in at the 3′-end of this GR-GAL4 construct. The fusion construct prepared in this way (GR-GAL4-humanPPARalpha-LBD) was recloned into the plasmid pcDNA3 (from Invitrogen) in order to enable constitutive expression therein by the cytomegalovirus promoter. This plasmid was linearized with a restriction endonuclease and stably transfected into the previously described cell clone containing the luciferase reporter element. The finished PPARalpha reporter cell line which contains a luciferase reporter element and constitutively expresses the PPARalpha fusion protein (GR-GAL4-human PPARalpha-LBD) was isolated by selection with zeocin (0.5 mg/ml) and G418 (0.5 mg/ml).
The activity of PPARalpha agonists is determined in a 3-day assay which is described below: […]

| SMILES | EC50 [nM] |
| --- | --- |
| Cc1cccc(-c2nc(CO[C@H]3CCC[C@@H](OCC(OC/C=C/c4ccccc4)C(=O)O)C3)c(C)o2)c1 (stereo partly drawn) [Example 25, 3-[(1R,3S)-3-(5-Methyl-2-m-tolyloxazol-4-ylmethoxy)cyclohexyloxy]-2-(3-phenyl-2-propenyloxy)propionic acid] | 6.2 |
| COC(CO[C@@H]1CCC[C@H](OCc2nc(-c3ccc4ccccc4c3)oc2C)C1)C(=O)O (stereo partly drawn) [Example 35, 2-Methoxy-3-{(1R,3S)-3-[5-methyl-2-(3-naphthyl)oxazol-4-ylmethoxy]cyclohexyl-oxy}propionic acid] | 84 |
| Cc1cccc(-c2nc(CO[C@H]3CCC[C@@H](OCC(Cc4cccc(C(F)(F)F)c4)C(=O)O)C3)c(C)o2)c1 (stereo partly drawn) [Example 91, 2-[(1R,3S)-3-(5-Methyl-2-m-tolyloxazol4-ylmethoxy)cyclohexyloxymethyl]-3-(3-trifluoromethylphenyl)propionic acid] | 78 |
| Cc1cccc(-c2nc(CO[C@H]3CCC[C@@H](OCC4(C(=O)O)CC4)C3)c(C)o2)c1 [Example 5, (1R,3S)-1-[3-(5-methyl-2-m-tolyloxazol-4-ylmethoxy)cyclohexyloxymethyl]cyclo-propanecarboxylic acid] | 69 |
| Cc1cccc(-c2nc(CO[C@H]3CCC[C@@H](OCC(OCc4ccc(C(C)(C)C)cc4)C(=O)O)C3)c(C)o2)c1 (stereo partly drawn) [Example 18, 3-[(1R,3S)-3-(5-Methyl-2-m-tolyloxazol-4-ylmethoxy)cyclohexyloxy]-2-(4-tert-butylbenzyloxy)propanoic acid] | 1.5 |

More lines, now with the values ahead:

| EC50 [nM] | SMILES |
| --- | --- |
| 14 | COC(CO[C@@H]1CCC[C@H](OCc2nc(-c3ccc(C)cc3C)oc2C)C1)C(=O)O (stereo partly drawn) [Example 36, 2-Methoxy-3-{(1R,3S)-3-[5-methyl-2-(2,4-dimethylphenyl)oxazol-4-ylmethoxy]-cyclohexyloxy}propionic acid] |
| 22 | CCCOC(CO[C@@H]1CCC[C@H](OCc2nc(-c3cccc(C(F)(F)F)c3)oc2C)C1)C(=O)O (stereo partly drawn) [Example 52, 3-{(1R,3S)-3-[5-Methyl-2-(3-trifluoromethylphenyl)oxazol-4-ylmethoxy]cyclohexyl-oxy}-2-propoxypropionic acid] |
| 43 | C#CCOC(CO[C@@H]1CCC[C@H](OCc2nc(-c3cccc(C)c3)oc2C)C1)C(=O)O (stereo partly drawn) [Example 22, 3-[(1R,3S)-3-(5-Methyl-2-m-tolyloxazol-4-ylmethoxy)cyclohexyloxy]-2-(2-propynyl-oxy)propionic acid] |
| 26 | CCOC(CO[C@@H]1CCC[C@H](OCc2nc(-c3ccc(OC(F)(F)F)cc3)oc2C)C1)C(=O)O (stereo partly drawn) [Example 60, 2-Ethoxy-3-{(1R,3S)-3-[5-methyl-2-(4-trifluoromethoxyphenyl)oxazol-4-ylmethoxy]-cyclohexyloxy}propionic acid] |
| 0.8 | CCCOC(CO[C@@H]1CCC[C@H](OCc2nc(-c3ccc(C)cc3)oc2C)C1)C(=O)O (stereo partly drawn) [Example 47, 3-{(1R,3S)-3-[5-Methyl-2-(4-methylphenyl)oxazol-4-ylmethoxy]cyclohexyloxy}-2-propoxypropionic acid] |
| 0.6 | Cc1ccc(-c2nc(CO[C@H]3CCC[C@@H](OC[C@@H](OCc4ccc(C(F)(F)F)cc4)C(=O)O)C3)c(C)o2)cc1 [Example 81, (R)-3-[(1R,3S)-3-(5-Methyl-2-(4-methylphenyl)oxazol-4-ylmethoxy)cyclohexyloxy]-2-(4-trifluoromethylbenzyloxy)propionic acid] |
| 24 | COCC(CO[C@@H]1CCC[C@H](OCc2nc(-c3cccc(C)c3)oc2C)C1)C(=O)O (stereo partly shown) [Example 8, (1R′,3S′)-2R/S-Methoxymethyl-3-[3-(5-methyl-2-m-tolyloxazol-4-ylmethoxy)cyclo-hexyloxy]propionic acid] |
| 41 | CCC(CCO[C@@H]1CCC[C@H](OCc2nc(-c3ccc(F)cc3)oc2C)C1)C(=O)O (stereo partly drawn) [Example 1, 2-Ethyl-4{(1R,3S)-3-[2-(4-fluorophenyl)-5-methyloxazol-4-ylmethoxy]-cyclohexyloxy}butanoic acid] |
